Test results taken from ChEMBL document CHEMBL1201862, “PubChem BioAssay data set” (2004).
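1) Cells in 96-well plates. 2) Compound, 48 h, 5 concentrations. 3) Linear interpolation between surrounding doses. 4) Unreached endpoint = highest concentration. At the GI50, growth is halved.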 Activity calls are given as the source filed them. Cut-off read from the data, not from the text of the source: active = GI50 up to about 1.1 µM and inactive = higher.

Columns and labels:
Test in all cases: NCI-60 cell line screen, 48 h
[1] = test system: A549
[2] = test system: DU-145
[3] = test system: KM12
[4] = test system: MDA-MB-231
[5] = test system: NCI-H226
[6] = test system: NCI/ADR-RES
[7] = test system: RPMI-8226
[8] = test system: SF-268
[9] = test system: SK-MEL-28
[10] = test system: SK-MEL-2
[11] = test system: SK-OV-3
[12] = test system: SNB-75
[13] = test system: SR
[14] = test system: T47D
[15] = test system: TK-10
[16] = test system: UACC-257
[17] = test system: UACC-62
[18] = test system: HT-29
[19] = test system: HL-60

Measured: GI50

Cc1ccc(S(=O)(=O)c2ccsc2NC(=O)c2ccccc2)cc1
inactive: [1] 48.1 µM | [2] > 100 µM | [3] > 100 µM | [4] 14.8 µM | [5] > 60.4 µM | [6] 35.2 µM | [7] > 100 µM | [8] 31.3 µM | [9] > 100 µM | [10] > 57 µM | [11] 46.9 µM | [12] 28.2 µM | [13] 4.79 µM | [14] > 100 µM | [15] 36.3 µM | [16] > 100 µM | [17] > 100 µM

CSc1ncc2c(n1)sc1c(=O)n(-c3ccccc3)cnc12
inactive: [1] > 100 µM | [2] > 100 µM | [18] > 100 µM | [3] > 100 µM | [4] > 100 µM | [5] > 100 µM | [6] > 100 µM | [7] > 100 µM | [8] > 100 µM | [9] > 100 µM | [10] > 100 µM | [11] > 100 µM | [12] > 100 µM | [13] > 100 µM | [14] > 100 µM | [15] > 100 µM | [16] > 100 µM | [17] > 100 µM

Cc1ccc(NC(=O)COc2ccc(Cl)cc2)cc1Cl
inactive: [1] 74.1 µM | [2] > 100 µM | [18] > 100 µM | [3] > 100 µM | [4] 15.2 µM | [5] 31 µM | [6] 78.2 µM | [7] 87.5 µM | [8] 53.1 µM | [9] > 100 µM | [10] > 100 µM | [11] 52.4 µM | [12] 59 µM | [13] 10.1 µM | [14] > 100 µM | [15] 27.3 µM | [16] 83.4 µM | [17] 53.3 µM

COc1ccccc1NC(=S)Nc1cc(C)cc(C)n1
inactive: [1] > 100 µM | [2] > 100 µM | [19] > 100 µM | [18] > 100 µM | [3] > 100 µM | [4] > 100 µM | [5] > 100 µM | [6] > 100 µM | [7] > 100 µM | [8] > 100 µM | [9] > 100 µM | [10] > 100 µM | [11] > 100 µM | [12] > 49.4 µM | [14] > 100 µM | [15] > 100 µM | [16] > 100 µM | [17] > 100 µM

CC(C)CNP(=O)(NCC(C)C)Oc1ccc(CC(NC(=O)OCc2ccccc2)C(=O)OCc2ccccc2)cc1 (centres undefined)
inactive: [1] 47.5 µM | [2] 9.46 µM | [18] 17.2 µM | [3] 18.1 µM | [4] 17.7 µM | [5] 56.1 µM | [6] 28.8 µM | [7] 14.5 µM | [8] 17.6 µM | [9] 15.4 µM | [10] 18.5 µM | [11] 15.2 µM | [12] 19.5 µM | [13] 6.17 µM | [14] 13.4 µM | [15] 31.4 µM | [16] 24.8 µM | [17] 18.5 µM

Cn1c2ccc([N+](=O)[O-])cc2c(=O)c2c(O)cc(O)cc21
inactive: [1] 29.4 µM | [2] 47.8 µM | [19] > 100 µM | [3] 61.1 µM | [4] 57.3 µM | [5] 53.2 µM | [6] 17 µM | [7] > 100 µM | [8] 19.7 µM | [9] > 100 µM | [10] > 10 µM | [12] 4.15 µM | [13] 19.2 µM | [14] 45.2 µM | [15] 66.2 µM | [16] > 100 µM | [17] 54.5 µM

CCOC(=O)C(C)c1nc2cc(C(F)(F)F)ccc2[nH]c1=O (centres undefined)
inactive: [1] > 100 µM | [2] 84.5 µM | [19] 62.7 µM | [18] > 100 µM | [3] > 100 µM | [4] > 100 µM | [5] > 100 µM | [6] 47.8 µM | [7] 51.9 µM | [8] > 100 µM | [9] > 100 µM | [10] > 100 µM | [11] > 100 µM | [12] > 100 µM | [14] 15.4 µM | [15] > 100 µM | [16] 69.8 µM | [17] > 100 µM

N#CCCN(C(=O)Nc1ccccc1)[C@H]1CCCC[C@@H]1N(C(=O)Nc1ccccc1)c1ccccc1
inactive: [1] 58.1 µM | [2] > 100 µM | [18] 43 µM | [3] 32.8 µM | [4] > 100 µM | [5] 77.8 µM | [6] > 100 µM | [7] 36.7 µM | [9] > 100 µM | [10] > 100 µM | [11] > 100 µM | [12] 16.7 µM | [13] 19.3 µM | [14] > 100 µM | [15] > 100 µM | [16] > 100 µM | [17] > 100 µM

N#Cc1c(-c2ccc(Cl)cc2)[nH]c(=O)n(C2OC(CO)C(O)C(O)C2O)c1=O (centres undefined)
inactive: [1] > 100 µM | [2] > 100 µM | [19] > 100 µM | [18] > 100 µM | [3] > 100 µM | [4] > 100 µM | [5] 46 µM | [6] > 100 µM | [7] > 100 µM | [8] > 100 µM | [9] > 100 µM | [10] > 100 µM | [11] > 100 µM | [12] 43.2 µM | [14] 74 µM | [15] > 100 µM | [16] > 100 µM | [17] > 100 µM

CC1(C)OC(=O)C(C)(C)C(=O)O1
inactive: [1] > 100 µM | [2] > 100 µM | [19] > 10 µM | [18] > 100 µM | [3] > 100 µM | [4] > 100 µM | [5] > 100 µM | [6] > 100 µM | [8] > 100 µM | [9] > 100 µM | [10] > 100 µM | [11] > 100 µM | [12] > 100 µM | [13] > 100 µM | [14] > 100 µM | [15] > 100 µM | [16] > 100 µM | [17] > 100 µM

Cn1c2ccccc2c2c3c(c4c5ccccc5n(C)c4c21)C(=O)N(c1ccccc1)C3=O
inactive: [1] > 100 µM | [2] > 100 µM | [18] > 100 µM | [3] > 100 µM | [4] > 100 µM | [5] > 100 µM | [6] > 100 µM | [7] > 100 µM | [9] > 100 µM | [10] > 100 µM | [11] > 100 µM | [12] > 100 µM | [13] > 100 µM | [14] > 100 µM | [15] > 100 µM | [16] > 100 µM | [17] > 100 µM

O=C1OC2c3ccccc3C(=O)C2(c2ccccc2)N1c1ccccc1 (centres undefined)
inactive: [1] > 200 µM | [2] > 200 µM | [19] 29.9 µM | [18] > 200 µM | [3] > 200 µM | [4] > 200 µM | [5] > 200 µM | [6] > 200 µM | [7] 132 µM | [8] > 200 µM | [9] > 200 µM | [10] > 200 µM | [11] > 200 µM | [12] 45.4 µM | [14] 174 µM | [15] > 200 µM | [16] > 200 µM | [17] > 200 µM

C[C@H]1CN[C@@H]2[C@@H](C)[C@H]3[C@@H](C[C@H]4[C@@H]5CC[C@H]6C[C@@H](N)CC[C@]6(C)[C@H]5CC[C@]34C)O[C@@]2(O)C1
inactive: [1] 3.8 µM | [2] 4.03 µM | [19] 1.64 µM | [18] 1.19 µM | [3] 1.91 µM | [4] 1.9 µM | [5] 2.38 µM | [6] 2.54 µM | [7] 2.28 µM | [8] 1.5 µM | [9] 1.77 µM | [10] 3.06 µM | [11] 6.67 µM | [12] 2.44 µM | [14] 2.23 µM | [15] 2.53 µM | [16] 1.85 µM | [17] 1.95 µM

CCc1n[nH]c(=O)n1-c1ccc2ccccc2c1
inactive: [1] > 100 µM | [2] > 100 µM | [18] > 100 µM | [3] > 100 µM | [4] > 100 µM | [5] > 100 µM | [6] > 100 µM | [7] > 100 µM | [8] > 100 µM | [9] > 100 µM | [10] > 100 µM | [11] > 100 µM | [12] > 100 µM | [13] > 100 µM | [14] > 100 µM | [15] > 100 µM | [16] > 100 µM | [17] > 100 µM

CCOC(=O)CNC(=O)C(CSC(=O)N(O)c1ccc(Cl)cc1)NC(=O)CCC(N)C(=O)OCC (centres undefined)
inactive: [1] > 50 µM | [2] > 50 µM | [18] > 50 µM | [3] 12.2 µM | [4] 21 µM | [5] 1.32 µM | [6] > 50 µM | [7] 12.1 µM | [8] 1.88 µM | [9] 24.8 µM | [10] > 50 µM | [11] > 50 µM | [13] 43.5 µM | [14] > 50 µM | [16] > 50 µM | [17] > 50 µM
